In ChEMBL document CHEMBL4308841, “Synthesis, in vitro antiproliferative activity, and kinase inhibitory effects of pyrazole-containing diarylureas and diarylamides” (Eur J Med Chem, 2018):

Columns and labels:
[1] = test system: OVCAR-8; assay: Growth inhibition of human OVCAR8 cells assessed as cell growth at 0.1 uM incubated for 48 hrs by sulforhodamine B assay relative to control; type: functional; conditions: OVCAR-8, 48 h, read-out: Activity
[2] = test system: 786-0; assay: Growth inhibition of human 786-0 cells assessed as cell growth at 1 uM incubated for 48 hrs by sulforhodamine B assay relative to control; type: functional; conditions: 786-0, 48 h, read-out: Activity
[3] = test system: ACHN; assay: Growth inhibition of human ACHN cells incubated for 48 hrs by sulforhodamine B assay; type: functional, cell-based
[4] = test system: SF-539; assay: Growth inhibition of human SF539 cells assessed as cell growth at 100 uM incubated for 48 hrs by sulforhodamine B assay relative to control; type: functional; conditions: SF-539, 48 h, read-out: Activity
[5] = test system: NCI-H522; assay: Growth inhibition of human NCI-H522 cells assessed as cell growth at 0.01 uM incubated for 48 hrs by sulforhodamine B assay relative to control; type: functional; conditions: NCI-H522, 48 h, read-out: Activity
[6] = test system: LOX IMVI; assay: Growth inhibition of human LOXIMVI cells incubated for 48 hrs by sulforhodamine B assay; type: functional
[7] = test system: MCF7; assay: Growth inhibition of human MCF7 cells assessed as cell growth at 0.1 uM incubated for 48 hrs by sulforhodamine B assay relative to control; type: functional; conditions: MCF7, 48 h, read-out: Activity
[8] = test system: CAKI-1; assay: Growth inhibition of human Caki1 cells assessed as cell growth at 0.1 uM incubated for 48 hrs by sulforhodamine B assay relative to control; type: functional; conditions: CAKI-1, 48 h, read-out: Activity
[9] = test system: NCI-H23; assay: Growth inhibition of human NCI-H23 cells assessed as cell growth at 0.01 uM incubated for 48 hrs by sulforhodamine B assay relative to control; type: functional; conditions: NCI-H23, 48 h, read-out: Activity
[10] = test system: UACC-62; assay: Growth inhibition of human UACC62 cells assessed as cell growth at 0.1 uM incubated for 48 hrs by sulforhodamine B assay relative to control; type: functional; conditions: UACC-62, 48 h, read-out: Activity
[11] = test system: K562; assay: Growth inhibition of human K562 cells assessed as cell growth at 0.01 uM incubated for 48 hrs by sulforhodamine B assay relative to control; type: functional; conditions: K562, 48 h, read-out: Activity
[12] = test system: SK-MEL-28; assay: Growth inhibition of human SK-MEL-28 cells assessed as cell growth at 100 uM incubated for 48 hrs by sulforhodamine B assay relative to control; type: functional; conditions: SK-MEL-28, 48 h, read-out: Activity
[13] = test system: COLO 205; assay: Growth inhibition of human COLO205 cells incubated for 48 hrs by sulforhodamine B assay; type: functional, cell-based; conditions: COLO 205, 48 h
[14] = test system: M14; assay: Growth inhibition of human M14 cells incubated for 48 hrs by sulforhodamine B assay; type: functional, cell-based; conditions: M14, 48 h
[15] = test system: CAKI-1; assay: Growth inhibition of human Caki1 cells assessed as cell growth at 1 uM incubated for 48 hrs by sulforhodamine B assay relative to control; type: functional; conditions: CAKI-1, 48 h, read-out: Activity
[16] = test system: NCI/ADR-RES; assay: Growth inhibition of human NCI/ADR-RES cells assessed as cell growth at 0.1 uM incubated for 48 hrs by sulforhodamine B assay relative to control; type: functional; conditions: read-out: Activity
[17] = test system: K562; assay: Growth inhibition of human K562 cells assessed as cell growth at 1 uM incubated for 48 hrs by sulforhodamine B assay relative to control; type: functional; conditions: K562, 48 h, read-out: Activity
[18] = test system: HCT-116; assay: Growth inhibition of human HCT116 cells incubated for 48 hrs by sulforhodamine B assay; type: functional, cell-based; conditions: HCT-116, 48 h
[19] = test system: LOX IMVI; assay: Growth inhibition of human LOXIMVI cells assessed as cell growth at 1 uM incubated for 48 hrs by sulforhodamine B assay relative to control; type: functional; conditions: read-out: Activity
[20] = test system: U-251; assay: Growth inhibition of human U251 cells incubated for 48 hrs by sulforhodamine B assay; type: functional, cell-based; conditions: U-251, 48 h
[21] = test system: 786-0; assay: Growth inhibition of human 786-0 cells assessed as cell growth at 0.1 uM incubated for 48 hrs by sulforhodamine B assay relative to control; type: functional; conditions: 786-0, 48 h, read-out: Activity
[22] = test system: NCI-H226; assay: Growth inhibition of human NCI-H226 cells assessed as cell growth at 0.01 uM incubated for 48 hrs by sulforhodamine B assay relative to control; type: functional; conditions: NCI-H226, 48 h, read-out: Activity
[23] = test system: SK-OV-3; assay: Growth inhibition of human SKOV3 cells assessed as cell growth at 0.1 uM incubated for 48 hrs by sulforhodamine B assay relative to control; type: functional; conditions: SK-OV-3, 48 h, read-out: Activity
[24] = test system: UACC-257; assay: Growth inhibition of human UACC257 cells assessed as cell growth at 0.1 uM incubated for 48 hrs by sulforhodamine B assay relative to control; type: functional; conditions: UACC-257, 48 h, read-out: Activity
[25] = test system: MCF7; assay: Growth inhibition of human MCF7 cells assessed as cell growth at 0.01 uM incubated for 48 hrs by sulforhodamine B assay relative to control; type: functional; conditions: MCF7, 48 h, read-out: Activity
[26] = test system: HOP-62; assay: Growth inhibition of human HOP62 cells assessed as cell growth at 100 uM incubated for 48 hrs by sulforhodamine B assay relative to control; type: functional; conditions: HOP-62, 48 h, read-out: Activity
[27] = test system: DU-145; assay: Growth inhibition of human DU145 cells assessed as cell growth at 0.1 uM incubated for 48 hrs by sulforhodamine B assay relative to control; type: functional; conditions: DU-145, 48 h, read-out: Activity
[28] = test system: Malme-3M; assay: Growth inhibition of human MALME-3M cells assessed as cell growth at 0.1 uM incubated for 48 hrs by sulforhodamine B assay relative to control; type: functional; conditions: read-out: Activity
[29] = test system: MDA-MB-468; assay: Growth inhibition of human MDA-MB-468 cells assessed as cell growth at 1 uM incubated for 48 hrs by sulforhodamine B assay relative to control; type: functional; conditions: MDA-MB-468, 48 h, read-out: Activity
[30] = test system: COLO 205; assay: Growth inhibition of human COLO205 cells assessed as cell growth at 1 uM incubated for 48 hrs by sulforhodamine B assay relative to control; type: functional; conditions: COLO 205, 48 h, read-out: Activity
[31] = read-out: LC50 (the source's name)
[32] = read-out: pLC50 (the source's name) (converted)

For `COc1cc(Cl)cc(-c2nn(-c3cccc(NC(=O)Nc4ccc(Cl)c(C(F)(F)F)c4)c3)cc2-c2ccncc2)c1`, which growth at 0.1 µM [1] is on record?
Its growth at 0.1 µM is 96%.

And the growth at 1 µM [2]?
Its growth at 1 µM is 74%.

What about the GI50 ([3]; read-out: GI50) of the same molecule?
The GI50 was 752 nM.

And the CC50 [3, 31]?
The CC50 was over 100000 nM.

And the TGI ([3]; read-out: TGI)?
Its TGI is 10200 nM.

What about the GI50 ([3]; read-out: pGI50 (converted)) of the same molecule?
The GI50 was 759 nM.

What about the CC50 [3, 32] of the same molecule?
Its CC50 is over 100000 nM.

What about the TGI ([3]; read-out: pTGI (converted)) of the same molecule?
Its TGI is 14500 nM.

And the growth at 100 µM [4]?
Its growth at 100 µM is -78%.

What about the growth at 0.01 µM [5] of the same molecule?
The growth at 0.01 µM was 93%.

And the GI50 ([6]; read-out: GI50)?
The GI50 was 1230 nM.

What about the TGI ([6]; read-out: TGI) of the same molecule?
Its TGI is 31400 nM.

And the GI50 ([6]; read-out: pGI50 (converted))?
The GI50 was 1230 nM.

And the growth at 0.1 µM [7]?
Its growth at 0.1 µM is 93%.

And the growth at 0.1 µM [8]?
Its growth at 0.1 µM is 99%.

And the growth at 0.01 µM [9]?
Its growth at 0.01 µM is 90%.

And the growth at 0.1 µM [10]?
Its growth at 0.1 µM is 93%.

What about the growth at 0.01 µM [11] of the same molecule?
Its growth at 0.01 µM is 94%.

What about the growth at 100 µM [12] of the same molecule?
Its growth at 100 µM is -88%.

What about the GI50 ([13]; read-out: GI50) of the same molecule?
Its GI50 is 1530 nM.

And the CC50 [13, 31]?
Its CC50 is 6330 nM.

And the TGI ([13]; read-out: TGI)?
Its TGI is 31100 nM.

What about the GI50 ([13]; read-out: pGI50 (converted)) of the same molecule?
The GI50 was 1510 nM.

And the CC50 [13, 32]?
The CC50 was 6310 nM.

And the TGI ([13]; read-out: pTGI (converted))?
The TGI was 3090 nM.

What about the GI50 ([14]; read-out: GI50) of the same molecule?
The GI50 was 1330 nM.

And the CC50 [14, 31]?
Its CC50 is 50 nM.

And the TGI ([14]; read-out: TGI)?
Its TGI is 34700 nM.

What about the GI50 ([14]; read-out: pGI50 (converted)) of the same molecule?
The GI50 was 1320 nM.

What about the CC50 [14, 32] of the same molecule?
The CC50 was 9120 nM.

And the TGI ([14]; read-out: pTGI (converted))?
The TGI was 8510 nM.

And the growth at 1 µM [15]?
Its growth at 1 µM is 45%.

And the growth at 0.1 µM [16]?
The growth at 0.1 µM was 69%.

And the growth at 1 µM [17]?
The growth at 1 µM was 35%.

And the IC50 [18]?
The IC50 was 630 nM.

And the GI50 ([18]; read-out: GI50)?
The GI50 was 631 nM.

And the CC50 [18, 31]?
Its CC50 is 7300 nM.

What about the TGI ([18]; read-out: TGI) of the same molecule?
The TGI was 23600 nM.

What about the GI50 ([18]; read-out: pGI50 (converted)) of the same molecule?
The GI50 was 631 nM.

And the CC50 [18, 32]?
The CC50 was 7240 nM.

And the TGI ([18]; read-out: pTGI (converted))?
Its TGI is 2340 nM.

And the growth at 1 µM [19]?
The growth at 1 µM was 61%.

And the IC50 [20]?
Its IC50 is 730 nM.

What about the GI50 ([20]; read-out: GI50) of the same molecule?
Its GI50 is 729 nM.

What about the CC50 [20, 31] of the same molecule?
Its CC50 is 5000 nM.

And the TGI ([20]; read-out: TGI)?
The TGI was 21100 nM.

And the GI50 ([20]; read-out: pGI50 (converted))?
Its GI50 is 724 nM.

And the CC50 [20, 32]?
Its CC50 is 5010 nM.

And the TGI ([20]; read-out: pTGI (converted))?
The TGI was 2090 nM.

What about the growth at 0.1 µM [21] of the same molecule?
The growth at 0.1 µM was 96%.

And the growth at 0.01 µM [22]?
The growth at 0.01 µM was 97%.

What about the growth at 0.1 µM [23] of the same molecule?
The growth at 0.1 µM was 100%.

And the growth at 0.1 µM [24]?
The growth at 0.1 µM was 59%.

What about the growth at 0.01 µM [25] of the same molecule?
Its growth at 0.01 µM is 90%.

What about the growth at 100 µM [26] of the same molecule?
The growth at 100 µM was -48%.

And the growth at 0.1 µM [27]?
The growth at 0.1 µM was 98%.

What about the growth at 0.1 µM [28] of the same molecule?
The growth at 0.1 µM was 79%.

And the growth at 1 µM [29]?
The growth at 1 µM was 50%.

What about the growth at 1 µM [30] of the same molecule?
The growth at 1 µM was 80%.
